Target: T1, Rv2607 (PNPOx) (Mycobacterium tuberculosis, UniProt P9WIJ1)
T1 construct: gene pdxH
T1 sequence (P9WIJ1 whole entry): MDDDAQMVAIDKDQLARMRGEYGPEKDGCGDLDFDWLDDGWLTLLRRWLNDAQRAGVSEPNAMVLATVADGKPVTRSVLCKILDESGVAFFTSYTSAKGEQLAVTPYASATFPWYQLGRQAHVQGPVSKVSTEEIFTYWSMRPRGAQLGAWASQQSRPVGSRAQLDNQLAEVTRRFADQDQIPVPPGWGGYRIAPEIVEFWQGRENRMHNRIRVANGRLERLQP

## Cc1cc2nc3c(=O)[nH]c(=O)nc-3n(C[C@H](O)[C@H](O)[C@H](O)COP(=O)(O)O)c2cc1C [FMN]
  native nESI-MS of intact complex; ESI-MS identification of extracted cofactor: The yellow cofactor bound tightly to Rv2607 as purified and was unambiguously identified as FMN

From publication PMC3215729, “Rv2607 from Mycobacterium tuberculosis Is a Pyridoxine 5′-Phosphate Oxidase with Unusual Substrate Specificity” (PLoS ONE, 2011)
